Results: article PMC12318229, “RACK1A positively regulates opening of the apical hook in Arabidopsis thaliana via suppression of its auxin response gradient” (Proceedings of the National Academy of Sciences of the …, 2025)

Target: T1, RACK1A (RECEPTOR FOR ACTIVATED C KINASE 1A) (Arabidopsis thaliana, UniProt O24456)
T1 construct: WD40 seven-bladed beta-propeller scaffold protein
Experiment: microscale thermophoresis (MST)
Assay type: binding

T1 sequence (O24456 whole entry): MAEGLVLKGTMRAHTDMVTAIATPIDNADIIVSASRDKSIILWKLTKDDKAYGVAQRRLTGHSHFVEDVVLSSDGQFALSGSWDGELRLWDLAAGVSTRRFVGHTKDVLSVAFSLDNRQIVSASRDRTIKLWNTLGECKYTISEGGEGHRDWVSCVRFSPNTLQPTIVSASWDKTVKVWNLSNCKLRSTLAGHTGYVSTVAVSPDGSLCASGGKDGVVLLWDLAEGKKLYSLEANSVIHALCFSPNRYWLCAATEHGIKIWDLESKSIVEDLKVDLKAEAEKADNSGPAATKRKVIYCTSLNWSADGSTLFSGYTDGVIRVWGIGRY

COc1cc(OC)cc(C(=O)Nc2ccc3ccccc3c2)c1 [DAPIA]
Kd: 32.8 ± 15.7 µM
